“And” between values parts separate entries of the source, which are not always exact repeats. Identical values can stand only once. Like-named read-outs stand apart in the source and are kept apart here.
What was measured:
[1] = tested on: houseflies (Musca domestica L.); assay: Houseflies, injection in dorsal thorax, mortality and egg hatch; format: in vivo; settings: for % egg hatch: 48 hours; for % mortality: 24 hours, 1440 min
Protocol: Adult houseflies (Musca domestica L.) of mixed sex were injected in the dorsal thorax with 1.0 μl of a solution of a test compound in a mixture of acetone and physiological saline (1:1 v/v). Anaesthesia with carbon dioxide was used, and subsequent holding was at 25° C. A source of honey-water was provided. Fly mortality and oviposition were recorded after 24 hours and egg hatching after 48 hours. Similar, control, experiments were carried out using a mixture of acetone and physiological saline alone.

[2] = tested on: ticks (Ornithodoros moubata Murray); assay: Ticks, first instar, fed on blood containing test compound; format: in vivo; settings: 5.0 μg per 0.3 ml blood, 14 days at 30° C.
Protocol: First instar ticks (Ornithodoros moubata Murray) were allowed to engorge through a stretched artificial membrane (Parafilm M) on blood at 37° C. and containing a test compound added in a suitable solvent at a rate of 5.0 μg per 0.3 ml blood. Mortality and moulting were observed after 14 days holding at 30° C.

[3] = tested on: Lucilia sericata prepupae; assay: Lucilia pupae, topical treatment of prepupae; format: in vivo
Protocol: Lucilia sericata prepupae (taken from a batch of the insects of which approximately 50% were pupated) in groups of 10 were each treated topically with 1 μl of a solution of a test compound in acetone. Controls were treated with acetone alone. The insects were stored in the dark at 30° C. for 8 days, and then the number of insects which had hatched as normal adult flies, and any other effects, were observed.

[4] = tested on: uterine contraction in rats; assay: Stimulation of uterine contraction in rats compared with PGE1; format: in vivo, rat; settings: for Activity (compared with PGE1): intravenous, ratio to PGE1
Protocol: Pregnant anaesthetised rats were treated with the compounds of the invention by the intravenous or intravaginal route and the activity of each compound in stimulating uterine contraction was compared with that of a standard compound, the expensive prostaglandin E1 (PGE1), and expressed as a ratio.

hamsters = assay: Antifertility in hamsters (termination of pregnancy, subcutaneous); format: in vivo, hamster; settings: Mesocricetus auratus, sc
Protocol: On the 4th day of pregnancy, hamsters were each injected subcutaneously with an aqueous solution of a compound of formula I (prepared by dissolving the compound in a minimum volume of ethanol and diluting to the appropriate volume with 0.9% w/v saline). On the 7th day of pregnancy the hamsters were killed and their uteri were examined.
Alternatively, the hamsters were dosed on 3 consecutive days (the 3rd, 4th and 5th days of pregnancy) and killed on the 12th day of pregnancy.
The dose required for termination of pregnancy in 50% of the hamsters (ED50) was calculated mathematically.

female dog = settings: in vivo, po, 1 mg/kg
Protocol: (§1) In tests, four female rats and one female dog were each dosed orally with compound A at a rate of 1.0 mg/kg animal body weight. Before administration to the animals the compound was dissolved in a minimum quantity of a 1% w/w solution of Tween 80 emulsifier ("Tween" is a registered Trade Mark) in ethanol, and the resulting solution was diluted with distilled water to a concentration of 0.02% w/w.

female rats = settings: rat, in vivo, po, 1 mg/kg
Protocol: as §1

[5] = tested on: mosquito larvae (Aedes aegypti L.); assay: Mosquito larvae in water containing test compound; format: in vivo; settings: 25° C.
Protocol: Mosquito larvae (Aedes aegypti L.), at the late third or early fourth instar stage, were introduced into water containing a small concentration of a test compound, at 25° C. The water also contained 0.4% v/v acetone which had been employed as the vehicle for the introduction of the test compound. The larvae were fed with dried powdered bovine liver after 2 hours. After 24 hours at 25° C. a mortality count was made, and subsequent metamorphosis and emergence as adults were observed after seven days at 25° C., and compared with controls.

[6] = Musca domestica, 24 h, 0.5 μg/fly
[7] = test 1, 1.0 μg/prepupa, 8 days at 30° C., control 10
[8] = Musca domestica, 24 h, 0.25 μg/fly
[9] = 168 h, dosed 4th day of pregnancy, examined day 7, read-out: ED50 (dose required for termination of pregnancy in 50% of the hamsters)
[10] = 288 h, dosed 3rd, 4th and 5th days of pregnancy, examined day 12, read-out: ED50 (dose required for termination of pregnancy in 50% of the hamsters)

SMILES	% egg hatch ([1]; 0.5 μg/fly)	mortality at 0.5 µg/fly [1, 6] [%]	% mortality [2] [%]	% moulting normally [2] [%]	Activity (compared with PGE1) [4]	further results
C[C@@H](C/C=C/C(O)COc1ccccc1)CCCC(C)(C)O (stereo partly drawn) [P, (6R,10RS)-2,6-dimethyl-11-phenoxyundec-8-trans-ene-2,10-diol]	no eggs	50	0	0	0.14	Number hatched (out of 10) [3, 7]: 1 out of 10
C[C@@H](C/C=C/C(=O)CCc1cccc(Cl)c1)CCCC(C)(C)O [M, (R)-12-(3-chlorophenyl)-2-hydroxy-2,6-dimethyldodec-8-trans-en-10-one]	0%	–	0	0	–	% egg hatch ([1]; 0.25 μg/fly): 100%; % mortality ([1]; 0.5 μg/fly): 80% and 40%; mortality at 0.25 µg/fly [1, 8]: 30%
C[C@@H](C/C=C/C(=O)CCc1ccccc1Cl)CCCC(C)(C)O [N, (R)-12-(2-chlorophenyl)-2-hydroxy-2,6-dimethyldodec-8-trans-en-10-one]	100%	50	0	0	–	% egg hatch ([1]; 0.25 μg/fly): 100%; % mortality ([1]; 0.5 μg/fly): 60%; mortality at 0.25 µg/fly [1, 8]: 40%
CCCCC(C)(C)C(O)/C=C/C[C@H](C)CCCC(C)(C)O (stereo partly drawn) [Compound T, (6R,10RS)-2,6,11,11-tetramethylpentadec-8-trans-ene-2,10-diol]	–	–	–	–	–	ED50 (hamsters; [9]): 2 mg/kg
C[C@@H](C/C=C/C(=O)CCc1ccc(Cl)cc1)CCCC(C)(C)O [L, (R)-12-(4-chlorophenyl)-2-hydroxy-2,6-dimethyldodec-8-trans-en-10-one]	no eggs	80	0	0	–	–
C[C@@H](C/C=C/C(=O)COc1ccc(Cl)cc1)CCCC(C)(C)O [C, (R)-11-(4-chlorophenoxy)-2-hydroxy-2,6-dimethylundec-8-trans-en-10-one]	–	–	–	–	0.32	–
CCCCCC(=O)/C=C/C[C@H](C)CCCC(C)(C)O [J, (R)-2-hydroxy-2,6-dimethylpentadec-8-trans-en-10-one]	–	–	–	–	0.02	–
C[C@@H](C/C=C/C(O)CCCc1ccccc1)CCCC(C)(C)O (stereo partly drawn) [S, (6R,10RS)-2,6-dimethyl-13-phenyltridec-8-trans-ene-2,10-diol]	–	30	29	17	–	% egg hatch ([1]; 0.25 μg/fly): 100%; % mortality ([1]; 0.5 μg/fly): 40%; mortality at 0.25 µg/fly [1, 8]: 20%
C[C@@H](C/C=C/C(=O)COc1ccccc1)CCCC(C)(C)O [A, (R)-2-hydroxy-2,6-dimethyl-11-phenoxyundec-8-trans-en-10-one]	–	–	–	–	3.7	Number hatched (out of 10) ([3]; test 3, 1.0 μg/prepupa, control 9): 2 out of 10; weight loss (female dog): no weight loss; weight loss (female rats): no weight loss; times as active as PGE1 ([4]; pervaginal): over 100 times; ED50 (hamsters; [10]): ~2 mg/kg
CCCCCC(O)/C=C/C[C@H](C)CCCC(C)(C)O (stereo partly drawn) [Q, (6R,10RS)-2,6-dimethylpentadec-8-trans-ene-2,10-diol]	no eggs	70	0	0	0.05	Number hatched (out of 10) [3, 7]: 0 out of 10; Number hatched (out of 10) ([3]; test 2, 0.2 μg/prepupa, control 7): 6 out of 10; Number hatched (out of 10) ([3]; test 2, 0.4 μg/prepupa, control 7): 5 out of 10; Number hatched (out of 10) ([3]; test 2, 0.6 μg/prepupa, control 7): 1 out of 10; Number hatched (out of 10) ([3]; test 2, 0.8 μg/prepupa, control 7): 0 out of 10; Number hatched (out of 10) ([3]; test 2, 1.0 μg/prepupa, 8 days at 30° C., control 7): 2 out of 10; ED50 (hamsters; [10]): 2 mg/kg
C[C@@H](C/C=C/C(=O)COc1cccc(Cl)c1)CCCC(C)(C)O [O, (R)-11-(3-chlorophenoxy)-2-hydroxy-2,6-dimethylundec-8-trans-en-10-one]	–	–	–	–	0.91	–
C[C@@H](C/C=C/C(=O)CCc1ccccc1)CCCC(C)(C)O [G, (R)-2-hydroxy-2,6-dimethyl-12-phenyldodec-8-trans-en-10-one]	no eggs	60	0	0	0.67	% egg hatch ([1]; 0.1 μg/fly): 100%; mortality at 0.1 µg/fly ([1]; Musca domestica, 24 h, 0.1 μg/fly): 60%; ED50 (hamsters; [9]): 5 mg/kg; ED50 (hamsters; [10]): 4 mg/kg
C[C@@H](C/C=C/C(O)CCc1ccccc1)CCCC(C)(C)O (stereo partly drawn) [R, (6R,10RS)-2,6-dimethyl-12-phenyldodec-8-trans-ene-2,10-diol]	–	–	0	0	0.14	% egg hatch ([1]; 0.25 μg/fly): 100%; mortality at 0.25 µg/fly [1, 8]: 40%; larvae killed within 24 hours ([5]; 0.08 parts per million w/v): all; mortality at 0.04 µg/mL ([5]; Aedes aegypti, 24 h, 0.04 parts per million, read-out: larvae killed within 24 hours): ~50%; ED50 (hamsters; [10]): 0.5 mg/kg
CCCCC(C)(C)C(=O)/C=C/C[C@H](C)CCCC(C)(C)O [K, (R)-2-hydroxy-2,6,11,11-tetramethylpentadec-8-trans-en-10-one]	–	–	–	–	0.57	ED50 (hamsters; [10]): < 0.5 mg/kg
C[C@@H](C/C=C/C(=O)COc1ccccc1Cl)CCCC(C)(C)O [B, (R)-11-(2-chlorophenoxy)-2-hydroxy-2,6-dimethylundec-8-trans-en-10-one]	–	–	–	–	1.2	–
C[C@@H](C/C=C/C(=O)CCCc1ccccc1)CCCC(C)(C)O [F, (R)-2-hydroxy-2,6-dimethyl-13-phenyltridec-8-trans-en-10-one]	–	–	–	–	0.91	–
C[C@@H](C/C=C/C(=O)Cc1ccccc1)CCCC(C)(C)O [I, (R)-2-hydroxy-2,6-dimethyl-11-phenylundec-8-trans-en-10-one]	–	–	–	–	0.09	–

Source: patent US4243683A, “Tertiary alcohols” (May & Baker Limited, priority 1977, dated 1981)
